EC50 data for 18 compounds are collected here from US10689367B2, “Triazole pyridyl compounds as agonists of the APJ receptor” (AMGEN INC., priority 2016, dated 2020).

A word on the EC50: it is the concentration that produces a half-maximal response.

The structures appear in SMILES notation.

human APJ receptor, sequence (P35414 whole entry): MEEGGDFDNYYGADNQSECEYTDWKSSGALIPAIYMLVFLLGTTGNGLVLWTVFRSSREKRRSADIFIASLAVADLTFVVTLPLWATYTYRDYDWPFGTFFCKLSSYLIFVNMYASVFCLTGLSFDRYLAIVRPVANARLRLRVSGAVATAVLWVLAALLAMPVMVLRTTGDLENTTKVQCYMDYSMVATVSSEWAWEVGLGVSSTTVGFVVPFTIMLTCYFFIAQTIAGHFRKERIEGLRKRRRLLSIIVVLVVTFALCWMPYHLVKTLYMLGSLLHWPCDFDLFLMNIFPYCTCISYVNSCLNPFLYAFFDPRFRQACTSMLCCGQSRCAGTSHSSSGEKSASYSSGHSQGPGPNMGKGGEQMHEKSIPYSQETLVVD

This experiment addresses human APJ receptor (Homo sapiens (Human), UniProt P35414). Kind of experiment: [35S]GTPγS binding assay on membranes from CHO cells stably expressing human APJ receptor. It is filed as biochemical. The conditions noted are these: membranes of CHO cells stably expressing human APJ receptor, read-out: Activity hAPJ SPA EC50 IP. The method, boiled down:
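[35S]GTPγS binding measured on membranes from CHO cells stably expressing FLAG-tagged human APJ, with GDP, MgCl2 and NaCl levels optimized beforehand. Incubation 90 min at RT, imager read-out; EC50 from non-linear regression, averaged over several independent experiments.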
On the technique in general: GTPγS resists hydrolysis and so accumulates on activated G proteins.
`COc1cccc(-c2nnc(NS(=O)(=O)[C@@H](C)[C@H](OC)c3ncc(Cl)cn3)n2[C@H](C)c2cc(F)cc(F)c2)n1` (single isomer, unassigned) [Example 340.0, (1R,2S)-1-(5-chloropyrimidin-2-yl)-N-(4-((R)-1-(3,5-difluorophenyl)ethyl)-5-(6-methoxypyridin-2-yl)-4H-1,2,4-triazol-3-yl)-1-methoxypropane-2-sulfonamide or (1R,2S)-1-(5-chloropyrimidin-2-yl)-N-(4-((S)-1-(3,5-difluorophenyl)ethyl)-5-(6-methoxypyridin-2-yl)-4H-1,2,4-triazol-3-yl)-1-methoxypropane-2-sulfonamide]: the EC50 came out at 0.18 nM. For `COc1cccc(-c2nnc(NS(=O)(=O)[C@@H](C)[C@H](C)c3ncc(Cl)cn3)n2C[C@H]2CCCO2)n1` (racemic) [Example 281.0, (2S,3R)-3-(5-chloropyrimidin-2-yl)-N-(5-(6-methoxypyridin-2-yl)-4-(((R)-tetrahydrofuran-2-yl)methyl)-4H-1,2,4-triazol-3-yl)butane-2-sulfonamide or (2S,3R)-3-(5-chloropyrimidin-2-yl)-N-(5-(6-methoxypyridin-2-yl)-4-(((S)-tetrahydrofuran-2-yl)methyl)-4H-1,2,4-triazol-3-yl)butane-2-sulfonamide], the EC50 was found to be 110 nM.

As for `COc1cccc(-c2nnc(NS(=O)(=O)[C@@H](C)[C@H](OC)c3ncc(Cl)cn3)n2[C@@H](C)c2ccon2)n1` (single isomer, unassigned) [Example 264.0, (1R,2S)-1-(5-chloro-2-pyrimidinyl)-1-methoxy-N-(5-(6-methoxy-2-pyridinyl)-4-((1R)-1-(1,2-oxazol-3-yl)ethyl)-4H-1,2,4-triazol-3-yl)-2-propanesulfonamide or (1R,2S)-1-(5-chloro-2-pyrimidinyl)-1-methoxy-N-(5-(6-methoxy-2-pyridinyl)-4-((1S)-1-(1,2-oxazol-3-yl)ethyl)-4H-1,2,4-triazol-3-yl)-2-propanesulfonamide], the EC50 came to 2.9 nM. As to `COc1cccc(-c2nnc(NS(=O)(=O)[C@@H](C)[C@H](OC)c3ncc(Cl)cn3)n2[C@@H](C)c2ncc(C)o2)n1` (single isomer, unassigned) [Example 256.0, (1R,2S)-1-(5-chloro-2-pyrimidinyl)-1-methoxy-N-(5-(6-methoxy-2-pyridinyl)-4-((1S)-1-(5-methyl-1,3-oxazol-2-yl)ethyl)-4H-1,2,4-triazol-3-yl)-2-propanesulfonamide or (1R,2S)-1-(5-chloro-2-pyrimidinyl)-1-methoxy-N-(5-(6-methoxy-2-pyridinyl)-4-((1R)-1-(5-methyl-1,3-oxazol-2-yl)ethyl)-4H-1,2,4-triazol-3-yl)-2-propanesulfonamide], the EC50 is 0.48 nM.

As to `COc1cccc(-c2nnc(NS(=O)(=O)[C@@H](C)[C@H](OC)c3ncc(Cl)cn3)n2[C@@H]2CC23CC3)n1` (single isomer, unassigned) [Example 91.0], the EC50 amounted to 38 nM. Under `CC[C@H]([C@@H]1CCCCO1)n1c(NS(=O)(=O)[C@@H](C)[C@H](OC)c2ncc(C)cn2)nnc1-c1cncc(C)c1` (single isomer, unassigned) [Example 333.0] stands 7.7 nM. Under `COc1cccc(-c2nnc(NS(=O)(=O)[C@@H](C)[C@H](C)c3ncc(Cl)cn3)n2[C@@H](C)c2ccon2)n1` (racemic) [Example 268.0, (2S,3R)-3-(5-chloropyrimidin-2-yl)-N-(4-((R)-1-(isoxazol-3-yl)ethyl)-5-(6-methoxypyridin-2-yl)-4H-1,2,4-triazol-3-yl)butane-2-sulfonamide or (2S,3R)-3-(5-chloropyrimidin-2-yl)-N-(4-((S)-1-(isoxazol-3-yl)ethyl)-5-(6-methoxypyridin-2-yl)-4H-1,2,4-triazol-3-yl)butane-2-sulfonamide] stands 2.7 nM; under `COCC(COC)n1c(NS(=O)(=O)[C@@H](C)[C@@H](OC(C)C)c2ncc(Cl)cn2)nnc1-c1cncc(C)c1` [Example 13.0, (1S,2S)-1-(5-chloro-2-pyrimidinyl)-N-(4-(1,3-dimethoxy-2-propanyl)-5-(5-methyl-3-pyridinyl)-4H-1,2,4-triazol-3-yl)-1-(2-propanyloxy)-2-propanesulfonamide], 80 nM; under `CC[C@H]([C@@H]1CCCCO1)n1c(NS(=O)(=O)[C@@H](C)[C@H](OC)c2ncc(Cl)cn2)nnc1-c1cccc(OC)n1` (single isomer, unassigned) [Example 326.0], 0.14 nM. Under `COc1cccc(-c2nnc(NS(=O)(=O)[C@@H](C)[C@@H](OC(C)C)c3ncc(C)cn3)n2[C@@H](C)c2nc(C)no2)n1` (single isomer, unassigned) [Example 239.0] stands 2.6 nM.

In the case of `COc1cccc(-c2nnc(NS(=O)(=O)[C@@H](C)[C@H](C)c3ncc(Cl)cn3)n2Cc2cc(C)no2)n1` [Example 190.0, (2S,3R)-3-(5-chloropyrimidin-2-yl)-N-(5-(6-methoxypyridin-2-yl)-4((3-methylisoxazol-5-yl)methyl)-4H-1,2,4-triazol-3-yl)butane-2-sulfonamide], the concentration for a half-maximal effect (EC50) was 26 nM.

With `COc1cccc(-c2nnc(NS(=O)(=O)[C@@H](C)[C@H](OC)c3ncc(Cl)cn3)n2[C@H](C)c2cncc(F)c2)n1` (single isomer, unassigned) [Example 348.0, (1R,2S)-1-(5-chloropyrimidin-2-yl)-N-(4-((R)-1-(5-fluoropyridin-3-yl)ethyl)-5-(6-methoxypyridin-2-yl)-4H-1,2,4-triazol-3-yl)-1-methoxypropane-2-sulfonamide or (1R,2S)-1-(5-chloropyrimidin-2-yl)-N-(4-((S)-1-(5-fluoropyridin-3-yl)ethyl)-5-(6-methoxypyridin-2-yl)-4H-1,2,4-triazol-3-yl)-1-methoxypropane-2-sulfonamide], the EC50 came out at 1.34 nM. With `COc1cccc(-c2nnc(NS(=O)(=O)[C@@H](C)[C@@H](OC(C)C)c3ncc(Cl)cn3)n2C2CC2)n1` [Example 70.0], the EC50 amounted to 0.6 nM. For `CC(C)O[C@@H](c1ncc(Cl)cn1)[C@H](C)S(=O)(=O)Nc1nnc(-c2ccccn2)n1C1CC1` [Example 127.0], the EC50 amounted to 48 nM. Then `COc1cccc(-c2nnc(NS(=O)(=O)[C@@H](C)[C@H](C)c3ncc(Cl)cn3)n2[C@@H](C)c2nc(C)no2)n1` (single isomer, unassigned) [Example 247.0, (2S,3R)-3-(5-chloro-2-pyrimidinyl)-N-(5-(6-methoxy-2-pyridinyl)-4-((1R)-1-(3-methyl-1,2,4-oxadiazol-5-yl)ethyl)-4H-1,2,4-triazol-3-yl)-2-butanesulfonamide or (2S,3R)-3-(5-chloro-2-pyrimidinyl)-N-(5-(6-methoxy-2-pyridinyl)-4-((1S)-1-(3-methyl-1,2,4-oxadiazol-5-yl)ethyl)-4H-1,2,4-triazol-3-yl)-2-butanesulfonamide], with 5.3 nM; and `CC[C@H]([C@@H]1CCCCO1)n1c(NS(=O)(=O)[C@@H](C)[C@H](OC)c2ncc(Cl)cn2)nnc1-c1cccc(OC)n1` (single isomer, unassigned) [Example 325.0], with 0.33 nM. Under `COCC(COC)n1c(NS(=O)(=O)[C@@H](C)[C@H](OC)c2ncc(Cl)cn2)nnc1-c1cccnc1` [Example 16.0] stands 44 nM; under `CC[C@@H](C)n1c(NS(=O)(=O)[C@@H](C)[C@H](OC)c2ncc(Cl)cn2)nnc1-c1cccc(OC)n1` (single isomer, unassigned) [Example 55.0], 0.4 nM.
